For orientation: melting point means the temperature, or range, at which the solid turns liquid.

Series [1] deals with LasR quorum sensing system. Briefly: LasR assay (unstable gfp fused to elastase promoter). In kind it is cell-based, Pseudomonas aeruginosa. Particulars: for inhibition at 25 µg/mL / inhibition at 100 µg/mL / inhibition at 50 µg/mL: Pseudomonas aeruginosa; for inhibition at 25 µg/mL: read-out: LasR (% inhibition at 25 ug/ml compound); for inhibition at 100 µg/mL: read-out: LasR % inhibition at 100 μg/ml; for LasR % inhibition at 100 μg/ml: 100 μg/ml compound; for inhibition at 50 µg/mL: read-out: LasR % inhibition at 50 μg/ml. The procedure:
Compounds of the present invention were also assayed using a LasR assay. The LasR assay provides a measurement of quorum sensing inhibition activity. […] In the LasR assay, an unstable gfp has been fused to the elastase promoter, so that the amount of Gfp is regulated by the QS system. The plasmid is put into Pseudomonas aeruginosa which makes its own AHL signals. The assay is performed by adding the compounds to be tested to the system at the beginning of the experiment, at different concentrations. Gfp expression is measured at different times during growth, ending at the 24 h time point. The percentage fluorescence was determined at the time point when the fluorescence reached its maximum in the control, usually around 11-12 h after inoculation.

Series [2] deals with V. fischeri luxRI system (AHL quorum sensing, gfp fused to luxI promoter). As to the kind of experiment: N-acylated homoserine lactone (AHL) quorum sensing assay, GFP reporter strain. Format: cell-based, E. coli. Particulars: for ID40 at 3 nM OHHL: value in brackets; for AIC40: inhibition index: slope of ID40 vs AHL concentration, lower is better. Here is the method: Compounds of the present invention were compared to compounds of the prior art in order using an AHL-quorum sensing assay which utilises a reporter strain that expresses Green Fluorescent Protein (GFP) in the presence of AHL signals. The assay is performed by measuring GFP output in the presence of the compound to be measured and comparing the output to a control. By using multiple samples at varying concentrations of compound and AHL, an inhibition index of compound activity can be generated. The inhibition index used in the present example is the relative amount of compound required to reduce GFP expression to 40% of the control. The inhibition index is termed AIC40. Lower values of AIC40 represent better inhibitors of the AHL quorum sensing system.
The reporter strain of bacterium used in this assay is E. coli into which the V. fischeri luxRI system has been engineered. A gfp gene is fused to the QS controlled luxI promoter as is described in (Andersen et al., 2001, and Andersen et al, 1998).
Measurement of AIC40 (ID40 at 3 nM OHHL)
Determination of the activity of compounds using the E. coli based luxRI construct was performed as follows.
In a 15 mL plastic tube, mix 3 mL of o.n. culture of the lux reporter strain with 12 mL fresh medium, incubate at 37° C. Label six tubes, 10, 20, two 50 and two 100. To each of the tubes, add OHHL (3-oxohexanoyl homoserine lactone) to a final concentration of 10, 20, 50, or 100 nM respectively in the AB medium (add enough medium to distribute across the appropriate number of wells). To the first row of the microplate (row A), add 200 ul of the OHHL/AB mixture. To the remaining rows (B-H) add 100 ul of the OHHL/AB mixture. To the first row (A) add compounds to be tested to the 200 ul mixture of OHHL/AB. Make a dilution series in the first 7 rows by transferring 100 μL from wells in row 1 to wells in row 2 and so on. Discard the remaining 100 μL from row 7. Add 100 μL diluted lux monitor to each well. Incubate the plate 2 hours at 37° C. and measure green fluorescence using the “Victor” plate reader.
Calculate ID40 for each column. To do this, calculate the relative activity in each well. […] Make a plot for each concentration of OHHL vs. the range of compound concentrations used. Calculate the amount of compound needed to lower the relative activity to 40%, this is termed inhibiting dose 40%, ID40. For each compound an inhibition index, AIC40, is found as follows: plot ID40 against its respective AHL concentration; AIC40 is the slope of the best straight line through the plotted points and origin.

The subject of the next series is E. coli biofilm. As to the kind of experiment: Inhibition of biofilm formation, Petri dish model, E. coli. In kind it is cell-based. As to conditions: 48 h exposure. The procedure: (§1) Compounds were run in a Petri dish model—where the cells of E. coli or Pseudomonas aeruginosa were exposed to the compound for 48 h. The amount of biofilm was determined by combining image data of the XY (surface cover in one plane) and XZ (depth). The controls gave good biofilm cover and some structure formation.

For series [3], the system named is Pseudomonas aeruginosa biofilm. As to the kind of experiment: Inhibition of biofilm formation, Petri dish model, Pseudomonas aeruginosa. Format: cell-based. Particulars: 10 μg/mL, 48 h exposure. The procedure: as §1
The mark [4] stands for this setting: amount lowering GFP activity to 40%.

For the compound `O=C1C=C(c2ccc(C(F)(F)F)cc2)CO1` [Compound 3, 4-(4′-Trifluoromethylphenyl)furan-2(5H)-one], the inhibition at 25 µg/mL in series [1] was 22%. Moreover, the “ID40 at 3 nM OHHL” value in series [2] (setting [4]) is 4.37. In series [2], this compound gave an AIC40 of 0.77.
In the case of `CC1OC(=O)C=C1c1ccccc1` (centres unmarked) [Compound 27, 5-methyl-4-phenyl-2(5H)furanone], in series [1], the inhibition at 100 µg/mL came to 57% and the inhibition at 25 µg/mL was found to be 9%.
Compound `O=C1C=C(c2ccsc2)CO1` [Compound 14, 4-(Thiophen-3′-yl)furan-2(5H)-one] came in with a melting point of 130.5 to 132 °C. In addition, the inhibition at 25 µg/mL in series [1] is 15%. Further, in series [2], the “ID40 at 3 nM OHHL” value is 60 µM and the AIC40 was determined as 4.9.
In the case of `O=C1C=C(c2ccc(OC(F)(F)F)cc2)/C(=C/c2ccc(OC(F)(F)F)cc2)O1` [Compound 21, (Z)-4-(4′-(Trifluoromethoxy)phenyl)-5-(4″-(trifluoromethoxy)benzylidene)furan-2(5H)-one], in series [1], the inhibition at 100 µg/mL was 47% and the inhibition at 25 µg/mL came to 14.7%. Also, the “ID40 at 3 nM OHHL” value in series [2] (setting [4]) was found to be 148. Moreover, the AIC40 in series [2] was 4.4.
`O=C1C=C(c2ccccc2C(F)(F)F)CO1` [Compound 9, 4-(2′-Trifluoromethylphenyl)furan-2(5H)-one] showed a melting point of 49 to 50 °C.
Turning to “(Z)-5-(4-(trifluoromethyl)benzylidene)furan-2(5H)-one [Compound 29]”, in series [1], the “LasR (% inhibition at 25 ug/ml compound)” value is 15.8% and the “LasR % inhibition at 100 μg/ml” value is 38.4%.
The compound `Cc1noc(C)c1C1=CC(=O)OC1` [Compound 7, 4-(3′,5′-Dimethylisoxazol-4′-yl)furan-2(5H)-one] registered a melting point of 101 to 103 °C.
As to `O=C1C=C(c2ccc(F)cc2)CO1` [Compound 2, 4-(4′-Fluorophenyl)furan-2(5H)-one], the “ID40 at 3 nM OHHL” value in series [2] (setting [4]) turned out to be 39.4. Besides, the AIC40 in series [2] is on record as 14.39.
As for `O=C1C=C(c2ccccc2)/C(=C/c2cccc(C(F)(F)F)c2)O1` [Compound 13], the melting point is 108 to 110 °C.
`Cn1cc(C2=CC(=O)OC2)cn1` [Compound 12, 4-(N-Methylpyrazol-4′-yl)furan-2(5H)-one] came in with a melting point of 181 to 182 °C. Besides, the inhibition at 50 µg/mL in series [1] was 22.9%.
Turning to `O=C1C=C(Br)/C(=C/c2ccsc2)O1` [Compound 25], in series [1], the inhibition at 100 µg/mL is 78% and the inhibition at 25 µg/mL amounted to 20%.
Turning to `O=C1C=C(c2cccc(C(F)(F)F)c2)/C(=C/c2cccc(C(F)(F)F)c2)O1` [Compound 24], in series [1], the inhibition at 100 µg/mL amounted to 35% and the inhibition at 25 µg/mL came to 19%.
The like results for `O=C1C=C(Br)/C(=C/c2cccs2)O1` [Compound 26] were, in that order, 76% and 30%.
`O=C1C=C(c2ccc(OC(F)(F)F)cc2)CO1` [Compound 5, 4-(4′-Trifluoromethoxyphenyl)furan-2(5H)-one] registered a melting point of 122 to 123 °C. Besides, in series [1], the inhibition at 50 µg/mL was 43.2% and the inhibition at 25 µg/mL came out at 19.3%. In series [2] (setting [4]), the “ID40 at 3 nM OHHL” value was 11.37. Also, the AIC40 in series [2] came to 5.9.
Turning to “(Z)-4-(3′-(Trifluoromethyl)phenyl)-5-(3″-(trifluoromethyl)benzylidene)furan-2(5H)-one [Compound 23]”, in series [1], the “LasR (% inhibition at 25 ug/ml compound)” value stood at 23% and the “LasR % inhibition at 100 μg/ml” value stood at 46.4%. In series [2] (setting [4]), the “ID40 at 3 nM OHHL” value turned out to be 22.1. The AIC40 in series [2] worked out at 4.64.
In the case of `O=C1C=C(c2ccc(F)cc2F)CO1` [Compound 1, 4-(2′,4′-Difluorophenyl)furan-2(5H)-one], the “ID40 at 3 nM OHHL” value in series [2] (setting [4]) was 17.83. The compound also registered an AIC40 in series [2] of 7.6.
On to `O=C1C=C(c2ccc(F)cc2)CN1` [Compound 36, 4-(4′-Fluorophenyl)-1H-pyrrol-2(5H)one], for which the melting point was 190 °C.
The compound `O=C1C=C(c2cccc(C(F)(F)F)c2)CO1` [Compound 8, 4-(3′-Trifluoromethylphenyl)furan-2(5H)-one] had a melting point of 124 to 125 °C. Further, in series [1], the inhibition at 50 µg/mL is 42.2% and the inhibition at 25 µg/mL stood at 22%.
For “(Z)-5-(4-fluorobenzylidene)furan-2(5H)-one [Compound 28]”, in series [1], the “LasR (% inhibition at 25 ug/ml compound)” value is on record as 13% and the “LasR % inhibition at 100 μg/ml” value was 53%.
In turn, `O=C1C=C(c2ccc(C(F)(F)F)cc2)/C(=C/c2ccc(C(F)(F)F)cc2)O1` [Compound 17, (Z)-4-(4′-(trifluoromethyl)phenyl)-5-(4″-(trifluoromethyl)benzylidene)furan-2(5H)-one] displayed a melting point of 127.5 to 129 °C.
The same measure, in the same setting: the same measure for `O=C1C=C(Br)CO1` [Compound 11, 4-Bromofuran-2(5H)-one]: 72 to 74 °C; for `O=C1C=C(c2ccc(C(F)(F)F)cc2C(F)(F)F)CO1` [Compound 15, 4-(2′,4′-Bis(trifluoromethyl)phenyl)furan-2(5H)-one]: 116 to 117 °C.
As to `O=C1C=C(c2cccs2)CO1` [Compound 6, 4-(Thiophen-2′-yl)furan-2(5H)-one], the melting point lay in the range of 94 to 96.5 °C. In addition, in the series on E. coli biofilm (25 μg/mL), the “% biofilm” value is on record as 87.7%. Further, the “% biofilm” value with E. coli biofilm (40 μg/mL) worked out at 97%. Moreover, in series [1], the inhibition at 25 µg/mL was 10%. In addition, in series [2] (setting [4]), the “ID40 at 3 nM OHHL” value is 58.7. The same compound registered an AIC40 in series [2] of 24.6. Further, the “% biofilm” value in series [3] is 77%.
For the compound `O=C1C=C(c2ccc(Br)cc2)CN1` [Compound 35, 4-(4′-Bromophenyl)-pyrrol-2(5H)-one], the melting point was 233 to 235 °C (dec.).
